These are literature values, as cited in patent US10946025B2, “Compounds” (Glaxo Group Limited, priority 2009, dated 2021).

Series [1] deals with neutrophil. Conditions: background literature; for superoxide release: neutrophils.
In series [2] the test system is neutrophils. Conditions: treatment of neutrophils; Thelen et al. 1994.

As for `O=c1cc(N2CCOCC2)oc2c(-c3ccccc3)cccc12` [LY294002], in series [1], the neutrophil migration result is on record as “block” and the superoxide release result is “block”.
Consider `COC[C@H]1OC(=O)c2coc3c2[C@@]1(C)C1=C(C3=O)[C@@H]2CCC(=O)[C@@]2(C)C[C@H]1OC(C)=O` [wortmannin], for which, in series [1], the neutrophil migration entry is “block” and the superoxide release entry is “block”. The “fMLP-induced respiratory burst response” value in series [2] is reported as “prevents”.
